The values that follow come from patent US8016810B2, “Transdermal delivery system for cosmetic agents” (TransPharma Medical Ltd., priority 2003, dated 2011).

For series [1] the following is noted: relative to hydroquinone; cited from earlier work.
Series [2] in a line: In vitro skin permeation study, flow-through Franz diffusion cell, ViaDerm (micro-channel) treated vs intact skin. The format is in vitro ADME, porcine. The following applies: for Total permeated amount: after 24 hr. How it is done: The density of the microelectrode array was 100 microelectrodes/cm^2. […] The permeability of the cosmetic agents through porcine skin was measured in vitro with a flow-through Franz diffusion cell system (Laboratory Glass Apparatus, Berkeley, Calif.). […] Skin micro-channeling was performed in cells defined as VD (ViaDerm) application group, and then TEWL was measured again to control the operation. The skin pieces were placed on the receiver chambers with the stratum corneum facing upwards, and the donor chambers were clamped in place. […] Samples from the acceptor solutions were collected into tubes (using a fraction collector, Retriever IV, ISCO, Lincoln, Nebr., USA) at predetermined times for up to 24 hr period. The samples were kept at 4° C. until analyzed by HPLC. Samples from the acceptor solutions (10-50 μl) were injected into HPLC system (Waters) equipped with a pre-packed LiChrospher C18 column (150×3.9 mm, 5 μm; Waters), and a UV detector. […] The Salicylic acid samples were separated using an isocratic mobile phase containing 5% methanol 25% Acetonitrile and 0.01 mol/l KH2PO4/H3PO4 buffer pH 2.3 in H2O, at a flow rate 1 ml/min. The detection of salicylic acid was performed at a wavelength of 237 nm. […] The detection of hydroquinone was performed at a wavelength of 280 nm. […] The permeation efficacy is defined as the % of penetrated agent out of total amount of the agent applied on the skin.

The conditions of series [3]: over a 4 to 6 month period, systemic; cited from earlier work.
Setting [4] is: ViaDerm treated skin, after 24 h, 0.25 ml solution in donor chamber.
Where [5] appears, read: ViaDerm treated skin, 0.25 ml solution in donor chamber.
[6] abbreviates: after 3 h, 0.25 ml solution in donor chamber.
Setting [7] is: after 24 h, 0.25 ml solution in donor chamber.
Setting [8] is: control untreated skin, 0.25 ml solution in donor chamber.
Where [9] appears, read: untreated skin, after 24 h, 0.25 ml solution in donor chamber.

Molecules are shown by their SMILES.

In the case of `OC[C@H]1O[C@@H](Oc2ccc(O)cc2)[C@H](O)[C@@H](O)[C@@H]1O` [arbutin], the “Quantity required to achieve a similar skin whitening effect, compared to the quantity of hydroquinone used” value in series [1] is reported as “over 100 times”.

On to `O=C1O[C@H]([C@@H](O)CO)C(O)=C1O` [ascorbic acid], for which the “Quantity required to achieve a similar skin whitening effect, compared to the quantity of hydroquinone used” value in series [1] is 17 times.

For the molecule `Cn1c(=O)c2c(ncn2C)n(C)c1=O` [caffeine], in series [2] (ViaDerm pretreated skin, after 6 hours, 0.25 ml of 1% w/v aqueous solution), the “Caffeine flux (plateau)” value was found to be 18.5 ± 2.2 µg/mL. The Permeation efficacy came to 37.1±4.8% in series [2] (ViaDerm pretreated skin, after 16 hours, 0.25 ml of 1% w/v solution) and 3.6±2.6% in series [2] (untreated skin, after 16 hours, 0.25 ml of 1% w/v solution). Moreover, in series [2] (after 16 hours, 0.25 ml of 1% w/v solution), the “Permeation efficacy, ViaDerm in comparison to untreated skin” value was 10 fold. Moreover, in series [2] (control untreated skin, after 6 hours, 0.25 ml of 1% w/v aqueous solution), the Caffeine flux is 0.4 ± 0.3 µg/mL. For the same molecule, the “Cumulative permeability through ViaDerm treated skin compared to intact skin” value in series [2] (result in words (FIGS. 1, 2, 4)) was “enhanced”.

Turning to `Oc1ccc(O)cc1` [hydroquinone], the Permeation efficacy came to 27% in series [2] (setting [4]) and 1% in series [2] (setting [9]). Further, the results for the Total permeated amount in series [2] (setting [5]) and in series [2] (setting [8]) were 1824 μg/cm^2 and 62 μg/cm^2, respectively. Also, the “Difference in permeated amount, ViaDerm treated compared to untreated skin” value in series [2] (setting [6]) turned out to be 39 fold; in series [2] (setting [7]), 29 fold.

Consider `CC1=C(/C=C/C(C)=C/C=C/C(C)=C\C(=O)O)C(C)(C)CCC1` [isotretinoin], for which the “Acne cleared by treatment” value in series [3] is not above 85%.

Consider `O=C(O)c1ccccc1O` [salicylic acid], for which the Permeation efficacy is given as 62% in series [2] (setting [4]) and 4% in series [2] (setting [9]). The results for the Total permeated amount in series [2] (setting [5]) and in series [2] (setting [8]) were 820 μg/cm^2 and 84 μg/cm^2, respectively. Besides, the “Difference in permeated amount, ViaDerm treated compared to untreated skin” value in series [2] (setting [6]) came to 17 fold; in series [2] (setting [7]), 10 fold.
